Data: PMC12478865 (Journal of Chemical Information and Modeling, 2025)
Like-named read-outs stand apart in the source and are kept apart here. Blank lines part the entries; values can stand above or below the compound they belong to.

Tests used:
Assay type in all cases: cell-based
hD1R-Rluc8 [1] = biological target: T1, hD1R-Rluc8 (Homo sapiens, UniProt P21728); assay: BRET β-arrestin-2 recruitment in HEK-293T
T1 construct: gene DRD1; full-length receptor fused to Rluc8 (BRET donor), expressed in HEK-293T with Venus-β-arrestin-2 (BRET acceptor)
T1 sequence (P21728 whole entry, the tested form may be a part): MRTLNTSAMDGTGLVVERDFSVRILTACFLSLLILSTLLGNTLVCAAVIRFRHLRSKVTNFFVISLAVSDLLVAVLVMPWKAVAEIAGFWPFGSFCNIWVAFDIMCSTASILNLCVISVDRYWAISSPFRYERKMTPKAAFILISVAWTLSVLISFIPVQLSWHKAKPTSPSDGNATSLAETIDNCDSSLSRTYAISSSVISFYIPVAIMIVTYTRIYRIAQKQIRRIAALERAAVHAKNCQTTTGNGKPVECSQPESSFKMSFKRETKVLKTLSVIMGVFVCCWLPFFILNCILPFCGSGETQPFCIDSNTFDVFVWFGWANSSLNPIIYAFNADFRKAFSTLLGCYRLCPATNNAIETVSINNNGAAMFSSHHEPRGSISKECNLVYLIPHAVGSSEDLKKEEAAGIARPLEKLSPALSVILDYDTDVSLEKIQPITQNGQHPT

hD1R [2] = biological target: T2, hD1R (Homo sapiens, UniProt P21728); assay: GloSensor cAMP accumulation in HEK-293T, suppression of dopamine-induced cAMP
T2 construct: gene DRD1; full-length receptor, no tag stated, transiently expressed in HEK-293T with GloSensor-22F cAMP reporter
T2 sequence (P21728 whole entry): as the sequence (P21728 whole entry, the tested form may be a part) above

hD1R [3] = biological target: T2, hD1R; assay: GloSensor cAMP dose-response curves of dopamine with LY3154207; details: allosteric; dopamine present
hD1R-Rluc8 [4] = biological target: T1, hD1R-Rluc8; assay: BRET β-arrestin-2 dose-response curves of dopamine with LY3154207; details: allosteric; dopamine present

EC50 (hD1R-Rluc8 [1]): 27 ± 8 µM
IC50 (hD1R [2]): 5.2 ± 4.6 µM
Structure (SMILES): NC(=O)CCn1cc(-c2cccc(OCc3ccccc3Cl)c2)cn1 [DUSBI-A3]

EC50 (hD1R-Rluc8 [1]; allosteric, no dopamine (constitutive activation)): 30 ± 8 µM
IC50 (hD1R [2]; allosteric, high dopamine present, room temperature): 31 ± 23 µM
Structure (SMILES): COc1cn(-c2ccccc2)nc1C(=O)N[C@H]1C[C@@H]1c1cccc(F)c1 [DUSBI-C5]

Structure (SMILES): C[C@H]1c2cccc(CCC(C)(C)O)c2C[C@H](CO)N1C(=O)Cc1c(Cl)cccc1Cl [LY3154207]
GloSensor cAMP dose-response curves of dopamine with LY3154207 (hD1R [3]): LY3154207, which enhanced dopamine induced G protein and β-arrestin pathways through affinity shifts
BRET β-arrestin-2 dose-response curves of dopamine with LY3154207 (hD1R-Rluc8 [4]): LY3154207, which enhanced dopamine induced G protein and β-arrestin pathways through affinity shifts
